US20240343727A1, “PYRIDAZINONE OR PYRIDINONE COMPOUNDS, PREPARATION METHODS AND USES THEREOF” (InventisBio Co., Ltd., priority 2021, published 2024)

biological target: T1, PARP7 (Homo sapiens, UniProt Q7Z3E1); experiment: PARP7 TR-FRET assay (binding, displacement of biotinylated Probe A); conditions: 6 nM PARP7, 2 nM Probe A, 25° C., 30 min
T1 sequence (Q7Z3E1 1-657): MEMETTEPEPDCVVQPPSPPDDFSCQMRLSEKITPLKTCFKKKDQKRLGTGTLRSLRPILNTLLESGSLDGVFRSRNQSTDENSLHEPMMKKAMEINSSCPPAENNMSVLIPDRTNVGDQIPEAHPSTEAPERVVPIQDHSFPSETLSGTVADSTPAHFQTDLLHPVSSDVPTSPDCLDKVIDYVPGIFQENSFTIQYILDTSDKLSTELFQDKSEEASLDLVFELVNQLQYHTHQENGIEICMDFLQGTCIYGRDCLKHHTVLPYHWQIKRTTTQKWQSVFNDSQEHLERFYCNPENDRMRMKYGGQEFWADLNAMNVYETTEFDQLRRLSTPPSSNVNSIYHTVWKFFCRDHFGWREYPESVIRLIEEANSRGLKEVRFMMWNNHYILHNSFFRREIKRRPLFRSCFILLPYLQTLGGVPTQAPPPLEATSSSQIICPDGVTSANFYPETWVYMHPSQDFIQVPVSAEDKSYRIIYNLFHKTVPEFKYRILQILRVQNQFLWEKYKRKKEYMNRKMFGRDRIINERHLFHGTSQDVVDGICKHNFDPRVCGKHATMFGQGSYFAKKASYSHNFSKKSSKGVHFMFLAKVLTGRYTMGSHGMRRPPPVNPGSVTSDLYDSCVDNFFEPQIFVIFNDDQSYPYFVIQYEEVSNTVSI
Experimental: Biological Assay Example A: PARP7 TR-FRET Assay
A time-resolved fluorescence energy transfer (TR-FRET) assay was used to test binding activity of compounds to PARP7. Two microliter test compound was added in 384-well plate. Reactions were performed in a 6 uL volume by adding 4 uL mixture of PARP7 and Probe A (a biotinylated probe binding to the PARP7: N-(6-(2-(4-((2-(6-oxo-5-(trifluoromethyl)-1,6-dihydropyridazin-4-yl) isoindolin-5-yl) oxy) piperidin-1-yl) acetamido) hexyl)-5-((3aS,4S,6aR)-2-oxohexahydro-1H-thieno [3,4-d]imidazol-4-yl) pentanamide, made as reported in WO2019212937A1) in assay buffer (20 mM HEPES pH 8.0, 100 mM NaCl, 0.1% BSA, 2 mM DTT and 0.002% Tween20). The final concentration of PARP7 and Probe A were 6 nM and 2 nM, incubating with test compounds at 25° C. for 30 min. Four microliter ULight-anti 6xHis and LANCE Eu-W1024 labeled streptavidin (PerkinElmer) were added with the final concentration of ULight-anti 6xHis and LANCE Eu-W1024 at 4 nM and 0.25 nM. The reaction mixture was incubated at 25° C. for 30 min. The plate was read on a Tecan Spark plate reader (excitation wavelength at 320 nm, emission wavelength at 615 nm and 665 nm with a 90 us delay. The ratio of the 665/615 nm emission was calculated for each well to the amount of complex of PARP7 and Probe A in each well was calculated. The 0.25% DMSO vehicle was used as control and no PARP7 well was as blank well. Inhibition rate is calculated with the formula of % inhibition=100-100*(TRFcmpd-TRFblank)/(TRFcontrol−TRFblank). Inhibition IC50 is calculated with the equation of Y=Bottom+ (Top-Bottom)/(1+10^((LogIC50−X) *Hill Slope))

SMILES	IC50 [nM]
O=C(COC1CCOc2c1n[nH]c(=O)c2C1CC1)N1CCN(c2ncc(C(F)(F)F)cn2)CC1 (single isomer, unassigned) [Compound 129]	> 1000
O=C(CC1CN(c2cc(C(F)(F)F)c(=O)[nH]n2)c2cc(F)ccc2O1)N1CCN(c2ncc(C(F)(F)F)cn2)CC1 (single isomer, unassigned) [Compound 130]	< 100
O=C(CC1CN(c2cc(C(F)(F)F)c(=O)[nH]n2)c2cc(F)ccc2O1)N1CCN(c2ncc(C(F)(F)F)cn2)CC1 (single isomer, unassigned) [Compound 131]	100 to 1000
O=C(CC1CN(c2cc(C(F)(F)F)c(=O)[nH]n2)c2cc(Cl)ccc2O1)N1CCN(c2ncc(C(F)(F)F)cn2)CC1 (single isomer, unassigned) [Compound 132]	< 100
O=C(CC1CN(c2cc(C(F)(F)F)c(=O)[nH]n2)c2cc(Cl)ccc2O1)N1CCN(c2ncc(C(F)(F)F)cn2)CC1 (single isomer, unassigned) [Compound 133]	< 100
O=C(CC1CN(c2cc(C(F)(F)F)c(=O)[nH]n2)c2cc(C3CC3)ccc2O1)N1CCN(c2ncc(C(F)(F)F)cn2)CC1 (single isomer, unassigned) [Compound 134]	< 100
O=C(CC1CN(c2cc(C(F)(F)F)c(=O)[nH]n2)c2cc(C3CC3)ccc2O1)N1CCN(c2ncc(C(F)(F)F)cn2)CC1 (single isomer, unassigned) [Compound 135]	< 100
N#CC1(c2ccc3c(c2)N(c2cc(C(F)(F)F)c(=O)[nH]n2)CC(CC(=O)N2CCN(c4ncc(C(F)(F)F)cn4)CC2)O3)CC1 (single isomer, unassigned) [Compound 137]	< 100
C[C@@H]1CN(C(=O)CC2CN(c3cc(C(F)(F)F)c(=O)[nH]n3)c3cc(C#N)ccc3O2)CCN1c1ncc(Cl)cn1 (single isomer, unassigned) [Compound 141]	< 100
O=C(CC1CN(c2cc(C(F)(F)F)c(=O)[nH]n2)c2cc(Cl)ccc2O1)N1CCN(c2cnc(C(F)(F)F)cn2)CC1 (single isomer, unassigned) [Compound 143]	< 100
O=C(CC1CN(c2cc(C(F)(F)F)c(=O)[nH]n2)c2cc(C(F)F)ccc2O1)N1CCN(c2cnc(C(F)(F)F)cn2)CC1 (single isomer, unassigned) [Compound 146]	100 to 1000
CC(C)(O)c1cnc(N2CCN(C(=O)CC3CN(c4cc(C(F)(F)F)c(=O)[nH]n4)c4cc(Cl)ccc4O3)CC2)nc1 (single isomer, unassigned) [Compound 151]	< 100
C[C@@H]1CN(C(=O)CC2CN(c3cc(C(F)(F)F)c(=O)[nH]n3)c3cc(C#N)ccc3O2)CCN1c1ncc(C(F)(F)F)cn1 (single isomer, unassigned) [Compound 152]	< 100
C[C@@H]1CN(C(=O)CC2CN(c3cc(C(F)(F)F)c(=O)[nH]n3)c3cc(C#N)ccc3O2)CCN1c1cnc(C(F)(F)F)cn1 (single isomer, unassigned) [Compound 153]	< 100
N#Cc1ccc2c(c1)N(c1cc(C(F)(F)F)c(=O)[nH]n1)CC(CC(=O)N1CCN(c3ccc(C(F)(F)F)cn3)CC1)O2 (single isomer, unassigned) [Compound 154]	< 100
O=C(CC1CN(c2cc(C(F)(F)F)c(=O)[nH]n2)c2ccc(F)cc2O1)N1CCN(c2ncc(C(F)(F)F)cn2)CC1 (single isomer, unassigned) [Compound 157]	< 100
O=C(CC1CN(c2cc(C(F)(F)F)c(=O)[nH]n2)c2ccc(F)cc2O1)N1CCN(c2ncc(C(F)(F)F)cn2)CC1 (single isomer, unassigned) [Compound 158]	100 to 1000
O=C(CC1CN(c2cc(C(F)(F)F)c(=O)[nH]n2)c2ccc(Cl)cc2O1)N1CCN(c2ncc(C(F)(F)F)cn2)CC1 (single isomer, unassigned) [Compound 163]	< 100
O=C(CC1CN(c2cc(C(F)(F)F)c(=O)[nH]n2)c2ccc(Cl)cc2O1)N1CCN(c2ncc(C(F)(F)F)cn2)CC1 (single isomer, unassigned) [Compound 164]	100 to 1000
